Test results reported in patent US9827292B2, “Use of KGF in the treatment of menopausal disorders” (Università degli Studi di Roma “La Sapienza”, priority 2012, dated 2017).

Assay: In vitro release test of Pluronic F127 hydrogel with model molecules
Assay type: physicochemical
Details: F127 20% w/v, 60 ml H2O, 37° C., FIG. 6D
Procedure: 2 mL of loaded hydrogel containing 4 mg of myoglobin or prednisolone in a solution of 20% Pluronic F127 w/v were introduced into a dialysis membrane bag (MWCO 3500 Da), and the dialysis bag sealed at the end was incubated in 60 mL of release medium (distilled water) at 37° C. and was stirred at a rate of 50 rpm. Saturation conditions were avoided by means of frequent substitution of fresh water. At predetermined intervals, aliquots of 0.5 mL of release medium were removed and substituted with an equal volume of fresh solution. The release behaviour in vitro of hydrogel loaded with myoglobin was compared with that of hydrogel loaded with prednisolone. All the assays were conducted in triplicate. Release profiles were expressed in cumulative release percentages over time.
The loaded hydrogels were prepared by solubilising at low temperature, in a 5 ml vial, an exact quantity of model molecule (approximately 4-5 mg) in 2 ml of solution of F127 20% w/v; the solution was then brought to the hydrogel state by placing the hermetically sealed vial at 37° C. The vial, closed at the head with a perforated mesh, was then introduced into the release medium (60 ml bidistilled H2O, T=37° C.) and held under constant and gentle stirring. The release therefore occurred by means of diffusion from the upper surface of the gel to the dissolution medium. […]

Row | Compound | release profile from Pluronic F127 hydrogel, comparison of the two model molecules
1 | C[C@]12C=CC(=O)C=C1CC[C@@H]1[C@@H]2[C@@H](O)C[C@@]2(C)[C@H]1CC[C@]2(O)C(=O)CO [prednisolone] | almost identical for the two different molecules
2 | myoglobin | almost identical for the two different molecules
